# Tested on: FAE metabolism
# Test: THL oral gavage: levels of FAEs in jejunum mucosa, lung and plasma
# Type: in vivo, mouse
# Procedure: Adult C57BL/6J male mice were food-deprived for 24 h prior to harvest with ad libitum access to water. To prevent coprophagia, animals were maintained on elevated wire-bottom cages for a 72-hour acclimation period and during the 24-hour food deprivation. One hour prior to harvest, mice received an oral gavage (100 μL of 10 mg/mL) of the DGL inhibitor, THL, in polyethylene glycol (PEG) or PEG alone as control. Jejunum intestinal epithelium and lungs were harvested as described above (see section “Tissue Harvest and Preparation for Enzyme Assays”).
# Frozen tissue samples were weighed and homogenized in 1.0 mL of methanol containing the internal standards [^2H5]-2-AG (500 pmol), [^2H4]-AEA (1 pmol), and [^2H4]-OEA (10 pmol). Lipids were extracted using chloroform (2.0 mL) prior to being washed with 1.0 mL 0.2-micron ultra-purified water. Following centrifugation (1,500 × g, 15 min, 4°C), the lower organic phase was collected and dried under N2 steam (99.998% pure). A second chloroform wash (1.0 mL) was then performed followed by another centrifugation (1,500 × g, 15 min, 4°C) and collection of the lower phase. Samples were reconstituted in 2.0 mL of chloroform and purified via open-bed silica gel column chromatography. Columns were washed with a 9:1 chloroform:methanol mixture to elute MAGs and FAEs for collection. Collected eluates were dried under N2 steam (99.998% pure) and resuspended in 0.2 mL of methanol:chloroform (1:1) prior to analysis via UPLC-MS/MS (see section “Quantitation of MAGs and FAEs”).
# Data was acquired using equipment described above (see section “UPLC-MS/MS Detection of Analytes”) and using the elution protocol described above (see section “Quantitation of MAG Biosynthetic Enzyme Activity Assay Products”). Cone voltage and collision energy for each analyte are as follows, respectively: AEA = 30 v, 14 v; [^2H4]-AEA = 26 v, 16v; OEA = 28 v, 16 v; [^2H4]-OEA = 48 v, 14 v; DHEA = 30 v, 50 v; 2-AG (20:4) = 30 v, 12 v; [^2H5]-2-AG = 25 v, 44v; 2-DG (22:6) = 34 v, 14 v; 2-PG (16:0) = 18 v, 10 v; 2-OG (18:1) = 42 v, 10 v; 2-LG (18:2) = 30 v, 10 v. MS/MS detection was in positive ion mode and capillary voltage set at 0.1 kV. Extracted ion chromatograms were used to quantify AEA (m/z = 348.3 > 62.0), [^2H4]-AEA (m/z = 352.3 > 66.1), OEA (m/z = 326.4 > 62.1), [^2H4]-OEA (m/z = 330.4 > 66.0), DHEA (m/z = 372.3 > 91.0), 2-AG (m/z = 379.3 > 287.3), [^2H5]-2-AG (m/z = 384.3 > 93.4), 2-DG (m/z = 403.3 > 311.1), 2-PG (m/z = 331.3 > 239.3), 2-OG (m/z = 357.4 > 265.2), and 2-LG (m/z = 355.3 > 263.3). Quantitation occurred using a stable isotope dilution method to detect protonated adducts of the ions [M + H] + in MRM mode. Acyl migration is known to occur in many MAG species following silica-gel purification, therefore the sum of 1-AG and 2-AG, 1-PG and 2-PG, 1-OG and 2-OG, and 1-DG and 2-DG are reported ([Stella et al., 1997]). The established lower limit of quantitation (LLOQ: signal to noise ratio >10) for 2-AG, 2-DG, 2-PG, 2-OG, and 2-LG was 0.5 pmol. The LLOQ for AEA, OEA, and DHEA was 0.008 pmol.
# [1] = THL 1 mg oral, 1 h prior to tissue harvest
smiles,measurement,setting,value
"CCCCCCCCCCC[C@@H](C[C@@H]1OC(=O)[C@H]1CCCCCC)OC(=O)[C@H](CC(C)C)NC=O [THL, tetrahydrolipstatin]",AEA level in jejunum mucosa,"THL 1 mg oral gavage 1 h prior to harvest, vehicle 2.85 ± 0.29",2.41 ± 0.24 pmol/g
same,AEA level in lung,"THL 1 mg oral gavage 1 h prior to harvest, vehicle 3.14 ± 0.14",2.85 ± 0.08 pmol/g
same,AEA level in plasma,"THL 1 mg oral gavage 1 h prior to harvest, vehicle 3.76 ± 0.07",3.11 ± 0.50 pmol/mL
same,DHEA level in plasma,"THL 1 mg oral gavage 1 h prior to harvest, vehicle 6.41 ± 0.76",5.62 ± 0.43 pmol/mL
same,DHEA level in lung,"THL 1 mg oral gavage 1 h prior to harvest, vehicle 14.25 ± 2.18",16.13 ± 1.19 pmol/g
same,DHEA level in jejunum mucosa,"THL 1 mg oral gavage 1 h prior to harvest, vehicle 14.53 ± 1.25",18.97 ± 5.08 pmol/g
same,OEA level in plasma,"THL 1 mg oral gavage 1 h prior to harvest, vehicle 41.19 ± 3.84",36.12 ± 2.36 pmol/mL
same,OEA level in jejunum mucosa,"THL 1 mg oral gavage 1 h prior to harvest, vehicle 52.23 ± 6.73",46.83 ± 9.00 pmol/g
same,OEA level in lung,"THL 1 mg oral gavage 1 h prior to harvest, vehicle 92.06 ± 4.99",83.75 ± 3.44 pmol/g
same,effect on levels of FAEs in jejunum mucosa vs vehicle,[1],no changes
same,effect on levels of FAEs in lung tissue vs vehicle,[1],no changes
same,effect on plasma concentrations of FAEs vs vehicle,[1],unaffected

# — article PMC8317065, “UPLC-MS/MS Method for Analysis of Endocannabinoid and Related Lipid Metabolism in Mouse Mucosal Tissue” (Frontiers in Physiology, 2021)
